From US20250042916A1 (ACONCAGUA BIO, INC., priority 2023, published 2025)

What was measured:
Type in all cases: cell-based
Amylin Receptor = Amylin Receptor (Homo sapiens, UniProt O60896+P30988); assay: Amylin Receptor cAMP stimulation, assay version (I or II) not marked; conditions: values without footnote mark; assay I or II not stated
Method: To optimize functional activity directed toward Gas coupling, COS-7 cells were stably transfected with human calcitonin receptor (CTR) and RAMP3, simultaneously. 100× concentration of compound working solutions were prepared (Agilent Technologies Bravo) with 4-fold serial dilution in 384-well Echo LDV plate (Labcyte, Cat #LP-0200). 100 nL/well 100× concentration of compound working solutions were moved to 384-well white low volume plate (Greiner, Cat #784075) using Labcyte ECHO550. 1×10^5 cells/mL COS-7/CTR or COS-7/AMY3 (HD Biosciences) cell suspensions prepared with assay buffer [DPBS containing 0.5 mM IBMX (Sigma, Cat #15879) and 0.1% BSA (GENVIEW, Cat #FA016-100 g)], 10 μL cell suspensions were added to each well of previous generated assay plate which already contains 100 nL compound at 100× concentration using ThermoFisher Multidrop Combi (1000 cells/well). Seal the plate and incubate at 37° C. with 5% CO2 for 30 min.
(§1) After incubation, the cAMP assay signal was generated using cAMP Hi-range Kit (Cisbio). 5 μL cAMP-d2 working solution was added to each well, followed by 5 μL Anti-cAMP antibody-cryptate working solution which was added to each well using ThermoFisher Multidrop Combi. The samples were then incubated at room temperature for 1 hour protected from light. the fluorescence was read at 665 and 615 nm with Reader PerkinElmer EnVision.
(§2) To optimize functional activity directed toward Gas coupling, COS-7 cells were stably transfected with human calcitonin receptor (CTR) and RAMP3, simultaneously. 100× concentration of compound working solutions were prepared with 4-fold serial dilution in 384-well Echo LDV plate (Labcyte, Cat #LP-0200-BC). 200 nL/well 100× concentration of compound working solutions were moved to 384-well white microplate (Perkin Elmer, Cat #6007680) using Labcyte ECHO550. 1×10^5 cells/mL COS-7/AMY3 cell suspensions prepared with assay buffer [HBSS containing 20 mM HEPES (Gibco, Cat #15630-080), 0.5 mM IBMX (Sigma, Cat #15879) and 0.1% Casein (Sigma, Cat #C4765)], 20 μL cell suspensions were added to each well of previous generated assay plate which already contains 200 nL compound at 100× concentration using ThermoFisher Multidrop Combi (2000 cells/well). Seal the plate and incubate at 37° C. with 5% CO2 for 30 min.
as §1, with “cAMP dynamic 2 kit (Revvity, Cat #62AM4PEC). 10” for “cAMP Hi-range Kit (Cisbio). 5”, “by 10” for “by 5”, “using CERTUS FLEX LIQUID DISPENSER.” for “using ThermoFisher Multidrop Combi.”, “PerkinElmer EnVision 2105.” for “PerkinElmer EnVision.”

[1] = molecular target: human calcitonin receptor (CTR) and RAMP3 (AMY3) in COS-7 cells (Homo sapiens, UniProt O60896+P30988); assay: Amylin Receptor cAMP Assay I; conditions: values marked *: Amylin Receptor cAMP Assay I; COS-7/AMY3 cells; read-out: Amylin Receptor cAMP Stimulation Activity: EC50
human calcitonin receptor (CTR) and RAMP3 (AMY3) in COS-7 cells, sequence (O60896 24-148, one chain of several): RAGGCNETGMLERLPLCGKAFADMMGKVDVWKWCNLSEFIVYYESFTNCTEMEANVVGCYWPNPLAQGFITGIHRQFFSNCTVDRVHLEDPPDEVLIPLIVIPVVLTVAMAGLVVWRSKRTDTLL
Procedure, shortened: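 COS-7 cells stably co-expressing human CTR and RAMP3 (AMY3) were stimulated with serially diluted compounds (4-fold) in DPBS with 0.5 mM IBMX and 0.1% BSA for 30 min at 37 °C, 1000 cells/well. cAMP accumulation was measured by HTRF (cAMP-d2/anti-cAMP cryptate, 1 h RT) read at 665/615 nm.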

[2] = molecular target: T1, human calcitonin receptor (CTR) in COS-7 cells (Homo sapiens, UniProt P30988); assay: Calcitonin Receptor (CTR) cAMP Assay; conditions: COS7-human CTR Clone #2 cells; read-out: Calcitonin Receptor cAMP Stimulation Activity: EC50
T1 construct: expressed in transfected cells; host or cells: COS-7 (COS7-human CTR Clone #2)
T1 sequence (P30988 25-474): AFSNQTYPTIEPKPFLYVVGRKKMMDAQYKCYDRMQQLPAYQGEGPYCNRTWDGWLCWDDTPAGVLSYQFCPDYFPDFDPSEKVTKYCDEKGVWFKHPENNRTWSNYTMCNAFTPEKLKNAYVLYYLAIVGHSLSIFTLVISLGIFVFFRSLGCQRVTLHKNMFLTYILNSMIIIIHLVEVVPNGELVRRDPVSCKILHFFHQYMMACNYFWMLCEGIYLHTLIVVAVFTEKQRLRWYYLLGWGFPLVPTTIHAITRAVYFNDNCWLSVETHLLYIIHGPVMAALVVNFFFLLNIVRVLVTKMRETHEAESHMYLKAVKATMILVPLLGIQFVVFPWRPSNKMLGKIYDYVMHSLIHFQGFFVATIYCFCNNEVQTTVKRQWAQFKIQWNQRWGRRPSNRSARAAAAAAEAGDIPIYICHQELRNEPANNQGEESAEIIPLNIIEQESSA
Excerpt: Calcitonin Receptor (CTR) cAMP Assay
The calcitonin receptor (CTR) belongs to the subfamily of GPCRs known as the secretin or ‘B’ family of GPCRs. Like other class B1 GPCRs, the CT receptor family is canonically coupled to Gs-mediated cAMP production, and measurement of cAMP accumulation has been the primary assay used to determine peptide selectivity and potency.
as §2, with “to create COS7-human CTR Clone #2 stable cell line.” for “and RAMP3, simultaneously.”, “COS7-human CTR Clone #2” for “COS-7/AMY3”
as §1, with “dynamic 2 kit (Revvity, Cat #62AM4PEC). 10” for “Hi-range Kit (Cisbio). 5”, “[…]” for “5 μL”, “CERTUS FLEX LIQUID DISPENSER.” for “ThermoFisher Multidrop Combi.”, “EnVision 2105.” for “EnVision.”

Amylin Receptor, sequence (O60896 24-148, one chain of several): as the sequence (O60896 24-148, one chain of several) above

| Structure (SMILES) | EC50 (Amylin Receptor) | EC50 [1] | EC50 [2] |
| --- | --- | --- | --- |
| Cc1nnc(-c2c(CCc3ccc(F)cc3)nc(CC(C)C)c(C(N)=O)c2-c2cc3ccnc(NCc4cncc(F)c4)c3s2)o1 [Compound 206, 6-[2-(p-fluorophenyl)ethyl]-4-(7-{[(5-fluoro-3-pyridyl)methyl]amino}-1-thia-6-aza-2-indenyl)-2-isobutyl-5-(5-methyl-1,3,4-oxadiazol-2-yl)nicotinamide] | 41.5 nM | – | – |
| COC1CCCN(c2nccc3cc(-c4c(C(N)=O)c(CC(C)C)nc(CCc5ccc(F)cc5)c4-c4nnc(C)o4)sc23)C1 (stereo not drawn) [Compound 135, 6-(4-fluorophenethyl)-2-isobutyl-4-(7-(3-methoxypiperidin-1-yl)thieno[2,3-c]pyridin-2-yl)-5-(5-methyl-1,3,4-oxadiazol-2-yl)nicotinamide] | – | > 1000 nM | 280 nM |
| Cc1cnc(-c2c(CCC3CCOCC3)nc(CC(C)C)c(C(N)=O)c2-c2cc3ccnc(N[C@@H]4CCc5ncccc54)c3s2)o1 [Compound 207, 4-{7-[(R)-4-aza-1-indanylamino]-1-thia-6-aza-2-indenyl}-2-isobutyl-5-(5-methyl-1,3-oxazol-2-yl)-6-[2-(tetrahydro-2H-pyran-4-yl)ethyl]nicotinamide] | 64.3 nM | – | – |
| Cc1nnc(-c2c(CCc3ccc(F)cc3)nc(CC(C)C)c(C(N)=O)c2-c2ccc3c(c2)CCCN3CCc2ccc(F)c(F)c2)o1 [Compound 174, 4-(1-(3,4-difluorophenethyl)-1,2,3,4-tetrahydroquinolin-6-yl)-6-(4-fluorophenethyl)-2-isobutyl-5-(5-methyl-1,3,4-oxadiazol-2-yl)nicotinamide] | – | 107 nM | 5.7 nM |
| Cc1nnc(-c2c(COc3ccc(F)cc3)nc(CC(C)C)c(C(N)=O)c2-c2ccc(C(=O)N[C@@H]3CCc4ccccc43)s2)o1 [Compound 210, N—[(R)-1-indanyl]-5-{3-carbamoyl-6-[(p-fluorophenoxy)methyl]-2-isobutyl-5-(5-methyl-1,3,4-oxadiazol-2-yl)-4-pyridyl}-2-thenamide] | 546 nM | – | – |
| CCc1nc(CC(C)C)c(C(N)=O)c(-c2cc3ccnc(N[C@@H]4CCc5ccc(F)cc54)c3s2)c1-c1nnc(C)o1 [Compound 209, 4-{7-[(R)-6-fluoro-1-indanylamino]-1-thia-6-aza-2-indenyl}-6-ethyl-2-isobutyl-5-(5-methyl-1,3,4-oxadiazol-2-yl)nicotinamide] | 96.9 nM | – | – |
| Cc1nnc(-c2c(CC34CC(C(F)F)(C3)C4)nc(CC(C)C)c(C(N)=O)c2-c2ccc(C(=O)NCc3ccc(F)c(F)c3)s2)o1 [Compound 203, 4-(5-((3,4-difluorobenzyl)carbamoyl)thiophen-2-yl)-6-((3-(difluoromethyl)bicyclo[1.1.1]pentan-1-yl)methyl)-2-isobutyl-5-(5-methyl-1,3,4-oxadiazol-2-yl)nicotinamide] | – | 939 nM | 65 nM |

The remaining compounds from weak to strong by EC50 [1], led by results:

| EC50 (Amylin Receptor) | EC50 [1] | EC50 [2] | Structure (SMILES) |
| --- | --- | --- | --- |
| – | 94 nM | 8.8 nM | Cc1nnc(-c2c(CCc3ccc(F)cc3)nc(CC(C)C)c(C(N)=O)c2-c2ccc3c(c2)CCC3OCc2ccc(F)c(F)c2)o1 (stereo not drawn) [Compound 142, 4-{1-[(3,4-difluorophenyl)methoxy]-5-indanyl}-6-[2-(p-fluorophenyl)ethyl]-2-isobutyl-5-(5-methyl-1,3,4-oxadiazol-2-yl)nicotinamide] |
| – | 51.4 nM | 6.9 nM | Cc1nnc(-c2c(CCc3ccc(F)cc3)nc(CC(C)C)c(C(N)=O)c2-c2ccc3c(ccn3CCc3ccc(F)c(F)c3)c2)o1 [Compound 144, 4-(1-(3,4-difluorophenethyl)-1H-indol-5-yl)-6-(4-fluorophenethyl)-2-isobutyl-5-(5-methyl-1,3,4-oxadiazol-2-yl)nicotinamide] |
| – | 36.6 nM | 8.1 nM | CCc1nc(CC(C)C)c(C(N)=O)c(-c2cc3ccnc(N[C@@H]4CCc5cc(F)ccc54)c3s2)c1-c1nnc(C)o1 [Compound 188, (R)-6-ethyl-4-(7-((5-fluoro-2,3-dihydro-1H-inden-1-yl)amino)thieno[2,3-c]pyridin-2-yl)-2-isobutyl-5-(5-methyl-1,3,4-oxadiazol-2-yl)nicotinamide] |
| – | 6.6 nM | 1.6 nM | Cc1nnc(-c2c(CCc3ccc(F)cc3)nc(CC(C)C)c(C(N)=O)c2-c2ccc(C(=O)NCc3ccc(F)c(F)c3)s2)o1 [Compound 107, N-(3,4-difluorophenyl)methyl-5-{5-carbamoyl-2-[2-(p-fluorophenyl)ethyl]-6-isobutyl-3-(5-methyl-1,3,4-oxadiazol-2-yl)-4-pyridyl}-2-thenamide] |
| – | 4.4 nM | 0.33 nM | Cc1nnc(-c2c(CCc3ccc(F)cc3)nc(CC(C)C)c(C(N)=O)c2-c2cc3ccnc(NCc4ccc(F)c(F)c4)c3s2)o1 [Compound 131, 4-(7-{[(3,4-difluorophenyl)methyl]amino}-1-thia-6-aza-2-indenyl)-6-[2-(p-fluorophenyl)ethyl]-2-isobutyl-5-(5-methyl-1,3,4-oxadiazol-2-yl)nicotinamide] |
| – | 4.1 nM | 2.1 nM | Cc1nnc(-c2c(CCc3ccc(F)cc3)nc(CC(C)C)c(C(N)=O)c2-c2ccc(C(=O)N[C@@H]3CCc4ccccc43)s2)o1 [Compound 106, N—[(R)-1-indanyl]-5-{5-carbamoyl-2-[2-(p-fluorophenyl)ethyl]-6-isobutyl-3-(5-methyl-1,3,4-oxadiazol-2-yl)-4-pyridyl}-2-thenamide] |
| – | 0.8 nM | 0.73 nM | COc1cccc2c1CC[C@H]2NC(=O)c1ccc(-c2c(C(N)=O)c(CC(C)C)nc(CCc3ccc(F)cc3)c2-c2nnc(C)o2)s1 [Compound 122, (R)-6-(4-fluorophenethyl)-2-isobutyl-4-(5-((4-methoxy-2,3-dihydro-1H-inden-1-yl)carbamoyl)thiophen-2-yl)-5-(5-methyl-1,3,4-oxadiazol-2-yl)nicotinamide] |
